What was measured:
[1] = system: MMP‐9; assay: immunofluorescence of MMP-9 in brain of MCAO rats; type: in vivo, Sprague–Dawley rats; conditions: high-dose SYS18 (15 mg/kg)
Experimental: (§1) Rats were randomly divided into five groups: Sham group (n = 24), rats received sham operation; MCAO model group (n = 30); SYS18 low‐dose group (7.5 mg/kg, n = 30); SYS18 high‐dose group (15 mg/kg, n = 30); and Positive control group rats were intraperitoneally injected with edaravone (15 mg/kg, n = 30). The tested compound was dissolved in 20% polyoxyethylene castor oil and was administered 0.5 h before operation and 6, 12, 24, and 36 h after reperfusion. The measurements were carried out 48 h after the operation. Ten animals in each group were used to measure brain water content, and 10 animals in each group were used to detect Evans blue content in brain tissue. Ten animals in each group were used for determination of biochemical indicators and pathological observations and WB experiments.
(§2) Immunofluorescence testing selects the same area as HE staining to observe and analyze the fluorescence level in the field of view. After deparaffinization of the paraffin sections to water, the tissue sections were subjected to antigen retrieval in a microwave oven in a retrieval box filled with citric acid antigen retrieval buffer (pH 6.0), and the sections were incubated overnight at 4°C with rabbit monoclonal anti‐MMP‐9 (1:100), rabbit polyclonal anti‐claudin‐5 (1:200). […]

[2] = system: MDA; assay: serum MDA in MCAO rats (kit); type: in vivo, Sprague–Dawley rats; conditions: 15 mg/kg (high dose), 48 h, p < 0.05
Experimental: as §1
(§3) Blood sample was collected at 48 h after MCAO. After centrifugation at 4°C × 12,000 g for 10 min, the clear supernatant was stored at −80°C. The components of SOD, MDA, TNF‐α, and IL‐1β in the blood samples were measured according to the instructions of the assay kits.

[3] = system: MCAO rats; assay: hematoxylin and eosin staining of brain tissue in MCAO rats; type: in vivo, Sprague–Dawley rats; conditions: high-dose SYS18 (15 mg/kg), 48 h ischemia–reperfusion
Experimental: as §1
Hematoxylin and eosin staining were used to observe the effect of SYS18 on pathological changes in ischemia–reperfusion brain tissue. After 48 h of ischemia–reperfusion, the rats were sacrificed, and the brains were immediately fixed with 4% paraformaldehyde after transcranial perfusion with ice‐cold saline (The damaged brain is located in the ischemic penumbra of the right brain. Through HE staining and pathological sectioning under a microscope, the area where neuronal cells are morphologically intact and have not yet degenerated or necrotic is determined as the ischemic penumbra). […]

[4] = system: MCAO rats; assay: blood–brain barrier permeability (Evans blue content in brain) in MCAO rats; type: in vivo, Sprague–Dawley rats; conditions: 48 h
Experimental: as §1
The integrity of the BBB was investigated using Evans blue (EB). Forty‐six hours after reperfusion, rats were injected with EB (4% saline, 4 mL/kg) via the tail vein. Two hours later, rats were anesthetized and perfused with saline through the left ventricle until colorless perfusate. After hydrangea and brainstem were removed, the brains were collected and homogenized. Evans blue was extracted from the brain with N,N‐dimethylformamide. After centrifugation at 3700 rpm for 15 min, the absorbance of supernatant was detected at 620 nm wavelength.

[5] = system: syndecan‐1; assay: glycocalyx component syndecan-1 in MCAO rats (ELISA); type: in vivo, Sprague–Dawley rats; conditions: SYS18 high dose 15 mg/kg, 48 h, p < 0.05
Experimental: as §1
(§4) Blood and brain sample were collected at 48 h after MCAO. After centrifugation at 4°C × 12,000 g for 10 min, the clear supernatant was stored at −80°C. Their concentrations of syndecan‐1, HS, and heparanase (HPSE) were determined using an ELISA kit. […] Substrates A and B were added, and the substrate was catalyzed by HRP to produce a product, which eventually converted under the action of a stop solution, and the absorbance (OD value) was measured at a wavelength of 450 nm on a microplate reader.

[6] = system: MCAO mice; assay: brain edema volume by T2-weighted MRI in MCAO mice; type: in vivo, C57BL/6 mice; conditions: SYS18 30 mg/kg twice a day, about 48 h after MCAO, model 36.64% ± 2.69%, p < 0.0001
Source text: (§5) C57BL/6 mice were randomly assigned to treatment groups by body weight. Operator blind to treatment status of animals. After the mice were anesthetized, a midline cervical incision was made. The left common carotid artery and external carotid artery were isolated and ligated. Arterial clamps were placed at the preparation line and distal end of the internal carotid artery. An incision was made at the bifurcation of the common carotid artery. 4–0 nylon line was inserted to a depth of 17–20 mm. The nylon line entered the internal carotid artery; then, it entered the skull to the anterior cerebral artery and blocked all blood flow sources in the middle cerebral artery. After keeping ischemic for 1 h, the animals were re‐anesthetized and then pulled out the nylon line for about 1 cm to achieve reperfusion for up to 48 h. The wound was disinfected with iodophor, and the skin was sutured. Put them on the electric blanket to maintain the body temperature after the completion of surgery; then, they were returned to cages upon recovery. For the sham group, except that no nylon line is inserted, other steps are the same as above. Sham group and model group were given 20% polyoxyethylene castor oil. Subsequently, the animals were sacrificed, and the serum and brains were collected for a series of subsequent analyses and studies.
Serial brain images were acquired approximately 48 h after MCAO. […]

[7] = system: IL‐1β; assay: serum IL-1β in MCAO rats (ELISA); type: in vivo, Sprague–Dawley rats; conditions: 15 mg/kg, 48 h, p < 0.05
Experimental: as §1, §3

[8] = system: claudin‐5; assay: immunofluorescence of claudin-5 in brain of MCAO rats; type: in vivo, Sprague–Dawley rats; conditions: high-dose SYS18 (15 mg/kg)
Experimental: as §1, §2

[9] = system: HS; assay: glycocalyx component HS in serum of MCAO rats (ELISA); type: in vivo, Sprague–Dawley rats; conditions: SYS18 high dose 15 mg/kg, 48 h, p < 0.05
Experimental: as §1, §4

[10] = system: mice model of increased peritoneal capillary permeability; assay: acetic acid-induced increased peritoneal capillary permeability model (Evans blue in peritoneal lavage); type: in vivo, Kunming mice
Experimental: Sixty Kunming mice were randomly divided into control group, SYS18 low, medium, and high‐dose groups (20, 40, and 80 mg/kg, respectively), and positive control group was given celecoxib (40 mg/kg), 10 mice in each group. The mice in each group were administrated with 0.2 mL/10 g once a day for three consecutive days.
One hour after the last administration, 2% Evans blue saline 0.1 mL/10 g was injected via the tail vein, and 0.6% acetic acid 0.2 mL/10 g was injected intraperitoneally immediately. Twenty minutes later, the mice were killed, the abdominal cavity was cut open, and the abdominal cavity was washed several times with 5 mL normal saline to collect washing fluid. The samples were centrifuged at 4700 r/min for 5 min, and the lateral absorbance at the wavelength of 620 nm was measured with a UV spectrophotometer to compare the differences between groups.
Acetic acid‐induced increased peritoneal capillary permeability in mice is a classic model of peripheral inflammation. Anti‐inflammatory effects of SYS18 were evaluated by using an increased peritoneal capillary permeability assay. After intravenous injection of Evans blue saline solution, intraperitoneal injection of acetic acid was used to increase peritoneal capillary permeability in mice. The peritoneal capillary permeability of mice in each group was compared by collecting peritoneal lavage fluid and measuring abdominal Evans blue absorbance.

[11] = system: SOD; assay: serum SOD in MCAO rats (kit); type: in vivo, Sprague–Dawley rats; conditions: 15 mg/kg, 48 h
Experimental: as §1, §3

[12] = system: MCAO rats; assay: neurological score (Zea-Longa) in MCAO rats; type: in vivo, Sprague–Dawley rats; conditions: 48 h after surgery
Source text: as §5
Rats were randomly divided into five groups: Sham group (n = 24), rats received sham operation; MCAO model group (n = 30); SYS18 low‐dose group (7.5 mg/kg, n = 30); SYS18 high‐dose group (15 mg/kg, n = 30); and Positive control group rats were intraperitoneally injected with edaravone (15 mg/kg, n = 30). […]
According to Zea‐Longa 4‐point scoring criteria, the animals were scored for neurological function at 48 h after surgery. […] And the degree of each animal model was scored as follows: 0 point, no symptoms of nerve injury; 1 point, inability to fully extend the forepaw; 2 points, circling laterally; 3 points, tip to the opposite side; 4 points, inability to walk spontaneously and loss of consciousness. […]

[13] = system: MCAO rats; assay: brain water content (dry/wet weight) in MCAO rats; type: in vivo, Sprague–Dawley rats; conditions: 48 h reperfusion, model 83.18% ± 0.71%
Experimental: as §1
The brain water content was evaluated by measuring difference between the dry and wet weights of brains. Briefly, after rats were sacrificed after 48 h of reperfusion, the brains were measured immediately to obtain the wet weights. Then, the brains were drying in a constant temperature oven at 100°C for 24 h, followed by measurements to obtain the dry weights. Brain water content was calculated according to the following formula, brain water content = 100% × (wet weight − dry weight)/wet weight.

[14] = system: TNF‐α; assay: serum TNF-α in MCAO rats (ELISA); type: in vivo, Sprague–Dawley rats; conditions: 15 mg/kg, 48 h, p < 0.05
Experimental: as §1, §3

[15] = system: heparanase (HPSE); assay: heparanase (HPSE) in brain of MCAO rats (ELISA); type: in vivo, Sprague–Dawley rats; conditions: SYS18 high dose 15 mg/kg, 48 h, p < 0.05
Experimental: as §1, §4

[16] = blood–brain distribution and PK of SYS18 in rats after intraperitoneal injection; conditions: for Kp: brain/plasma
Experimental: The blood samples were anticoagulated with EDTA and stored at 4°C, then centrifuged at 4°C at 4000 r/min for 10 min. The plasma concentrations were detected simultaneously (plasma stored at −80°C refrigerator). The whole brain was stored at −80°C for later detection and then uniformly prepared into brain tissue homogenate to detect drug concentration. Use Excel to analyze the drug concentration—time data pharmacokinetic parameters through atrioventricular method.

[17] = 15 mg/kg (SYS18 high dose; or edaravone positive control)
[18] = 15 mg/kg (SYS18 high dose; edaravone i.p.), model 2.42 ± 0.84, p < 0.01
[19] = 15 mg/kg (SYS18 high dose; edaravone)

## COc1ccc(-c2nc(-c3ccccc3O)n(-c3ccc(S(N)(=O)=O)cc3)n2)c(O)c1 [SYS18, 4‐(3‐(2‐hydroxy‐4‐methoxyphenyl)‐5‐(2‐hydroxyphenyl)‐1H‐1,2,4‐triazol‐1‐yl) benzenesulfonamide]
[1]
  fluorescent intensity of MMP-9 vs model group: decreased
[2]
  MDA levels in serum vs model group: reduced MDA levels in serum significantly
[3]
  histological damage of nerve cells in cerebral cortex (HE staining): the necrosis of nerve cell in the brain tissue was attenuated
[4]; 7.5 mg/kg (low dose), p > 0.05 vs model
  Evans blue content in brain tissue: 7.06 ± 1.58 µg/g
[4]; [17]
  Evans blue content in brain tissue: 5.74 ± 0.54 µg/g
[5]
  syndecan-1 in brain tissue vs model group: significantly increased
[6]
  brain edema volume (T2-MRI): 11.01% ± 5.32%
[7]
  IL-1β in serum vs model group: significantly decreased
[8]
  fluorescent intensity of claudin-5 vs model group: fluorescent intensity increased
[9]
  HS in serum vs model group: decreased
[10]; SYS18 high dose 80 mg/kg once a day for 3 days
  absorbance of Evans blue in peritoneal lavage fluid vs model group: no statistical difference
[10]; SYS18 low dose 20 mg/kg once a day for 3 days
  absorbance of Evans blue in peritoneal lavage fluid vs model group: did not significantly reduce
[10]; SYS18 medium dose 40 mg/kg once a day for 3 days
  concentration of Evans blue in peritoneal lavage fluid vs model group: significantly reduced
[11]
  SOD level in serum vs model group: could improve SOD level in serum
[12]; 7.5 mg/kg (low dose), model 2.42 ± 0.84, p > 0.05
  neurological score: 1.95 ± 0.74
[12]; [18]
  neurological score: 1.52 ± 0.68
[13]; 7.5 mg/kg (low dose), p > 0.05
  brain water content: 81.98% ± 1.18%
[13]; [19]
  brain water content: 80.62% ± 1.73%
[14]
  TNF-α in serum vs model group: significantly decreased
[15]
  HPSE in brain tissue vs model group: decreased
[16]; SD, rat, brain, ip, 15 mg/kg
  Cmax: 464 ng/g
  MRT: 7.15 h
  k el: 3.75e-05 s⁻¹
[16]; SD, rat, ip, 15 mg/kg, B/P (ratio of total drug concentration in brain to plasma), rats, 15 mg/kg i.p., at 1–2 h
  Kp: > 0.2
[16]; SD, rat, ip, 15 mg/kg, B/P (ratio of total drug concentration in brain to plasma), rats, 15 mg/kg i.p., at 4–6 h
  Kp: > 0.4
[16]; SD, rat, ip, 15 mg/kg, cerebral‐blood ratio of area under the curve (AUC0‐t), rats, 15 mg/kg i.p.
  Kp: > 0.4
[16]; SD, rat, in vivo, ip, 15 mg/kg
  Tmax: 2 h
  half-life: 5.12 h
[16]; SD, rat, plasma, ip, 15 mg/kg
  CL/F: 16.7 mL/min/kg
  Cmax: 1850 ng/mL
  MRT: 3.87 h
  Tmax: 1 h
  Vd/F: 3 L/kg
  half-life: 3.17 h
  k el: 6.06e-05 s⁻¹
[16]; SD, rat, plasma, ip, 15 mg/kg, AUC0‐inf_obs, blood, rats, 15 mg/kg i.p.
  AUC: 8520 ng·h/mL
[16]; SD, rat, plasma, ip, 15 mg/kg, AUC0‐t, blood, rats, 15 mg/kg i.p.
  AUC: 8440 ng·h/mL
[16]; SD, rat, plasma, ip, 15 mg/kg, area under the curve (AUC0‐t), blood, rats
  AUC: 8440 ng·h/mL
[16]; blood, rats, 15 mg/kg i.p.
  AUMC0‐inf_obs: 32940.745 ng/mg × h^2
  Tlag: 0 h
[16]; brain, rats, 15 mg/kg i.p.
  AUC0‐inf_obs: 3700.110 ng·h/mg
  AUC0‐t: 3504.387 ng·h/mg
  AUMC0‐inf_obs: 26458.752 ng/mg × h^2
  Tlag: 0 h
[16]; brain, rats, i.p.
  area under the curve (AUC0‐t): 3500 ng·h/mg

## CC1=NN(c2ccccc2)C(=O)C1 [edaravone, reference compound]
[4]; [17]
  Evans blue content in brain tissue: 6.20 ± 2.76 µg/g
[7]
  IL-1β in serum vs model group: significantly decreased
[11]
  SOD level in serum vs model group: could improve SOD level in serum
[12]; [18]
  neurological score: 1.50 ± 0.61
[13]; [19]
  brain water content: 81.13% ± 1.98%
[14]
  TNF-α in serum vs model group: significantly decreased

Reference: article PMC11537802, “The Neuroprotection of 1,2,4‐Triazole Derivative by Inhibiting Inflammation and Protecting BBB Integrity in Acute Ischemic Stroke” (CNS Neuroscience & Therapeutics, 2024)
